In US5236929A, “Compound UCA1064-B” (Kyowa Hakko Kogyo Co., Ltd., priority 1991, dated 1993):
Converted amounts (≈) assume the structure as drawn.

What was measured:
[1] = test system: Mouse mammary cancer SC-4; assay: Anti-tumor activity against mouse mammary cancer SC-4 in BALB/c nu/nu nude mice; format: in vivo; details: once a day, five days after start
Experimental: Mouse mammary cancer SC-4 (8 mm^3) was subcutaneously implanted into BALB/c nu/nu nude mice (5-weeks-old, male) at ventral side using a trockar.
After the volume of the tumor reached 100-300 mm^3, UCA1064-B was subcutaneously administered near the tumor at a dose of 15 mg/kg once a day for 4 days. UCA1064-B was administered in the form of a suspension, which was prepared by triturating 10 mg of UCA1064-B with 20 μl of Tween 80 and then suspending the compound in 0.3% carboxymethyl cellulose (CMC).
For comparison, 100 mg/kg of cortisone was subcutaneously administered once a day for 5 days in a similar manner.
Five days after the start of administration, the anti-tumor activity was determined as T/C (T: the volume of the tumor of the test group, C: the volume of the tumor of the control group).

[2] = Solubility; format: physicochemical
[3] = test system: BALB 3T3/H-ras cells; assay: Growth inhibition against BALB 3T3 cells transformed by the oncogene H-ras (Giemsa staining); format: cell-based
Experimental: (B) Growth Inhibition Against BALB 3T3 Cells Transformed by the Oncogene H-Ras (Hereinafter Referred to as BALB 3T3/H-Ras Cells)
A BALB 3T3/H-ras cell suspension (3×10^4 cells/ml) prepared by suspending BALB 3T3/H-ras cells in a medium comprising DME medium (Nissui Pharmaceutical Co, Ltd.) and 10% fetal calf serum (hereinafter referred to as Medium A) was put into wells of a 96-well microtiter plate in an amount of 0.1 ml per well. After the plate was incubated at 37° C. for 20 hours in a CO2 -incubator, 0.1 ml of a sample of UCA1064-B appropriately diluted with Medium A was added to each well. The cells were further incubated at 37° C. for 72 hours in the CO2 -incubator. After the culture supernatant was removed, the residue was washed once with physiological saline and then treated with 0.1 ml of methanol for 10 minutes to fix the cells. […] After the staining solution was removed, the residue was washed once with 0.2 ml of water. Then, the dye was extracted with 0.2 ml of 0.1N hydrochloric acid and absorbance was measured at 620 nm with a microplate reader.

[4] = test system: Staphylococcus aureus ATCC6538P; assay: Antibacterial and antifungal activity, agar dilution method; format: cell-based; details: pH 7, read-out: Minimum Inhibitory Concentration (MIC)
Experimental: (§1) The minimum inhibitory concentration (MIC) of UCA1064-B against various bacteria and fungi was determined by the agar dilution method using a medium (pH 7) prepared by dissolving 3 g of Bacto-Tryptone (Difco Laboratories), 3 g of meat extract, 1 g of yeast extract, 1 g of glucose and 16 g of agar in 1 liter of water.

[5] = test system: Enterococcus faecium ATCC10541; assay: as above; format: cell-based; details: pH 7, read-out: Minimum Inhibitory Concentration (MIC)
Experimental: as §1

[6] = test system: Candida krusei MTU12041; assay: as above; format: cell-based; details: Pichia kudriavzevii, pH 7, read-out: Minimum Inhibitory Concentration (MIC)
Experimental: as §1

[7] = test system: Saccharomyces cerevisiae MTU09001; assay: as above; format: cell-based; details: pH 7, read-out: Minimum Inhibitory Concentration (MIC)
Experimental: as §1

[8] = test system: Bacillus subtilis No. 10707; assay: as above; format: cell-based; details: pH 7, read-out: Minimum Inhibitory Concentration (MIC)
Experimental: as §1

[9] = test system: Salmonella typhi ATCC9992; assay: as above; format: cell-based; details: Salmonella enterica, pH 7, read-out: Minimum Inhibitory Concentration (MIC)
Experimental: as §1

[10] = test system: Klebsiella pneumoniae ATCC10031; assay: as above; format: cell-based; details: pH 7, read-out: Minimum Inhibitory Concentration (MIC)
Experimental: as §1

## CC(C)C(C)CCC(C)C1CCN=C2C3=C(CCC21C)C1(C)CCC(O)CC1CC3 (stereo not shown) [UCA1064-B]
[1]; 15 mg/kg × 4, subcutaneous near the tumor, *P < 0.01 (Mann-Whitney U test)
  T/C (tumor volume of test group / control group): 0.49
[2]; alcohol, acetone, ethyl acetate and chloroform
  Solubility: soluble in alcohol, acetone, ethyl acetate and chloroform
[2]; water and hexane
  Solubility: insoluble in water and hexane
[3]; Mus musculus, BALB/3T3, 72 hours, 37° C.
  IC50: 3.5 µg/mL (≈ 8.46 µM)
[3]; summary of the results shown (Tables 2 and 3)
  growth of cancer cells (conclusion in words): inhibits the growth of cancer cells
[4]
  MIC: 20 µg/mL (≈ 48.3 µM)
[5]
  MIC: 40 µg/mL (≈ 96.7 µM)
[6]
  MIC: 0.78 µg/mL (≈ 1.89 µM)
[7]
  MIC: 0.39 µg/mL (≈ 0.943 µM)
[8]
  MIC: 20 µg/mL (≈ 48.3 µM)
[9]
  MIC: > 100 µg/mL
[10]
  MIC: > 100 µg/mL

## C[C@]12CCC(=O)C=C1CC[C@@H]1[C@@H]2C(=O)C[C@@]2(C)[C@H]1CC[C@]2(O)C(=O)CO [Cortisone, reference compound]
[1]; 100 mg/kg × 5, subcutaneous, **P < 0.05 (Mann-Whitney U test)
  T/C (tumor volume of test group / control group): 0.39
